The values that follow come from patent US9650360B2, “Anti-mycobacterial drugs against tuberculosis” (priority 2012, dated 2017).

The assay has as its system HIV. As to the kind of experiment: in vitro anti-HIV activity in cell culture. Format: cell-based.

On to `O=C(/C=C(\O)c1cc(Cc2c(F)cc(F)cc2F)cn(Cc2ccccc2F)c1=O)C(=O)N1CCN(c2cccc3ccccc23)CC1`, for which the “EC90 (concentration for 90% inhibition of virus replication)” value is “nM range”.
